Data reported in PubChem BioAssay (NCI).
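Cells were grown in 96-well plates and exposed to each compound for 48 hours at five concentrations; endpoints were interpolated linearly between bracketing concentrations, or set to the highest concentration if not reached. The concentration for full growth arrest is given as TGI.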

Key:
Experiment in all cases: NCI tumour cell line growth inhibition, 48 h
[1] = system: HL-60(TB) leukemia
[2] = system: M14 melanoma
[3] = system: UACC-62 melanoma
[4] = system: SF-295 CNS
[5] = system: MALME-3M melanoma
[6] = system: LOX IMVI melanoma
[7] = system: SF-539 CNS
[8] = system: NCI-H460 lung
[9] = system: COLO 205 colon
[10] = system: UO-31 renal
[11] = system: SNB-75 CNS
[12] = system: SW-620 colon
[13] = system: ACHN renal
[14] = system: HCT-15 colon
[15] = system: NCI/ADR-RES ovarian
[16] = system: M19-MEL melanoma
[17] = system: RXF 393 renal
[18] = system: MDA-N
[19] = system: A549 NSCLC
[20] = system: OVCAR-5 ovarian

`CCOC(=O)CSc1nnc(CSc2nc(-c3ccccc3)c(-c3ccccc3)[nH]2)n1-c1ccccc1` gave a TGI [1] of 98.8 µM, a TGI [2] of over 62.4 µM and a TGI [3] of 71.6 µM. The TGI [4] was over 100 µM, the TGI [5] was over 100 µM and the TGI [6] was over 100 µM. The TGI [7] was 41.6 µM, the TGI [8] was over 100 µM and the TGI [9] was over 100 µM. The TGI [10] was 38.9 µM, the TGI [11] was over 100 µM and the TGI [12] was over 100 µM. For the same molecule, the TGI [13] was 35.5 µM, the TGI [14] was over 100 µM and the TGI [15] was over 100 µM. The TGI [16] was over 100 µM, the TGI [17] was 39.5 µM and the TGI [18] was over 100 µM. It also gave a TGI [19] of over 100 µM and a TGI [20] of over 100 µM.
